We go through two compounds from publication PMC7553643 (Bioorganic & medicinal chemistry letters, 2009).

SMILES strings stand for the structures. Marks after values point to notes of the source that are not given here.

One data set has as its system Caco2. The experiment in a line: Caco2 permeability. The data set is classed as in vitro ADME.
The nature of data set [1]: Pharmacokinetics in rats after single po and iv dosing. The settings on record: for AUC(0-inf): plasma.
Data set [2] is described as follows: Stability in rat liver microsomes. The data set is classed as in vitro ADME. Background: Microsomes from liver hold many membrane-bound enzymes, among them those of drug oxidation.
A further data set can be described thus: Caco2 permeability. The data set is classed as in vitro ADME. The settings on record: human, Caco-2. (Caco-2 monolayers are a common model of the intestinal barrier.)
Where [3] appears, read: rats, po, dose normalized to 30 mg/kg.

Consider `CCCCN1C(=O)C(CC2CCCCC2)NC(=O)C12CCN(Cc1ccc(Oc3ccccc3)cc1)CC2.Cl` (centres unmarked) [Compound 1a], for which, in the data set with Caco2, the Caco2 permeability entry is on record as “not detected”. For the same compound, the clearance in data set [1] (rat, in vivo, iv, 30 mg/kg) was 113 mL/min/kg. Further, the BA in data set [1] (rats, 30 mg/kg, po) amounted to 1.9%. In data set [1] (setting [3]), the “AUC (0-∞) (dose normalized to 30 mg/kg)” value is listed as 74.4^a ng h/m and the “Cmax (dose normalized to 30 mg/kg)” value is given as 16.7^a ng/mL. Also, the solubility entry in “Solubility” is “less than 5 μM”.

Compound `CCCCN1C(=O)[C@H](CC2CCCCC2)NC(=O)C12CCN(Cc1ccc(Oc3ccc(C(=O)O)cc3)cc1)CC2.Cl` [Compound 12, 4-(4-{[(3S)-1-butyl-3-(cyclohexylmethyl)-2,5-dioxo-1,4,9-triaza-spiro[5.5]undec-9-yl]methyl}phenoxy)benzoic acid hydrochloride] had a fraction remaining at 0.25 h in data set [2] of 22%. For the same compound, the apparent permeability (Papp) in the data set “Caco2 permeability” is 26.4 ×10⁻⁶ cm/s. Further, in data set [1] (rat, in vivo, iv, 30 mg/kg), the clearance was determined as 16 mL/min/kg and the half-life worked out at 11.1 min. In data set [1] (rat, in vivo, po, 30 mg/kg), this compound had an AUC of 10500 ng·h/mL, a Cmax of 7200 ng/mL and a half-life of 48.4 min. Moreover, the total exposure AUC(0-inf) in data set [1] (rat, iv, 30 mg/kg) was 3090 ng·h/mL. The same compound returned an AUC(0-inf) in data set [1] (rat, po, 30 mg/kg) of 10500 ng·h/mL. In data set [1] (rats, 30 mg/kg, po), the BA is given as 34.1%. Also, the solubility in “Solubility” is 26 µM.

The term solubility denotes how much of the substance goes into solution per volume. A low value points to little dissolved substance. What is called amount remaining is what is left of the initial amount, in per cent. High values mean less turnover, low ones more turnover. As usually defined, the Papp is the rate of passage across a membrane or cell layer, normalised by area and donor concentration. Read a low Papp as poor permeation. Broadly, the half-life is the time in which the quantity being followed falls by half. A lower half-life goes with rapid decline. One may read the AUC as the area under the concentration-time curve, a measure of exposure. Low values mean less exposure, high ones more exposure. A word on the Cmax: it is the peak of the concentration-time curve. The AUC(0-inf) is total exposure, with the tail of the curve extrapolated. Read a high AUC(0-inf) as high exposure.
